Reference: ChEMBL document CHEMBL1201862, “PubChem BioAssay data set” (2004)
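Five concentrations, 48 hours, 96-well plates. GI50 marks 50% less growth.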 Active and inactive are the calls of the source. Cut-off read from the data, not from the text of the source: active = GI50 up to about 1.1 µM and inactive = higher.

Experiments:
Test in all cases: inhibition of tumour cell growth, NCI panel, 48 h
[1] = tested on: SK-OV-3
[2] = tested on: SN12C
[3] = tested on: NCI-H460
[4] = tested on: A498
[5] = tested on: HOP-92
[6] = tested on: MDA-MB-231
[7] = tested on: K562
[8] = tested on: COLO 205
[9] = tested on: NCI-H226
[10] = tested on: A549
[11] = tested on: SK-MEL-5
[12] = tested on: SF-295
[13] = tested on: SW-620
[14] = tested on: OVCAR-8
[15] = tested on: ACHN
[16] = tested on: SK-MEL-2
[17] = tested on: HCT-116
[18] = tested on: SR
[19] = tested on: T47D

Compound	GI50 [1]	GI50 [2]	GI50 [3]	GI50 [4]	GI50 [5]	GI50 [6]	GI50 [7]	GI50 [8]	GI50 [9]	GI50 [10]	GI50 [11]	GI50 [12]	GI50 [13]	GI50 [14]	GI50 [15]	GI50 [16]	GI50 [17]	GI50 [18]	GI50 [19]
Cc1ccc(S(=O)(=O)Nn2c(O)c(C#N)c(-c3ccc(N(C)C)cc3)c(C#N)c2=O)cc1	0.142 µM (active)	> 50 µM (inactive)	> 50 µM (inactive)	> 50 µM (inactive)	> 50 µM (inactive)	> 50 µM (inactive)	> 50 µM (inactive)	> 50 µM (inactive)	> 50 µM (inactive)	> 50 µM (inactive)	26.2 µM (inactive)	0.023 µM (active)	> 50 µM (inactive)	> 50 µM (inactive)	> 50 µM (inactive)	> 50 µM (inactive)	> 50 µM (inactive)		
CC1=C(C(=O)CC(=O)C(=O)Nc2ccccc2C)Sc2ccccc2N1	> 100 µM (inactive)	> 100 µM (inactive)	> 40.4 µM (inactive)	> 100 µM (inactive)	> 67.9 µM (inactive)		> 56.9 µM (inactive)	> 42.7 µM (inactive)	> 100 µM (inactive)	> 69.3 µM (inactive)	> 100 µM (inactive)	> 100 µM (inactive)	> 39.3 µM (inactive)	> 100 µM (inactive)	> 100 µM (inactive)	> 100 µM (inactive)	> 40.6 µM (inactive)	> 100 µM (inactive)	
O=[N+]([O-])c1ccc2nc(/C(=N/Nc3ccccc3)C(O)c3ccc(C(O)/C(=N\Nc4ccccc4)c4nc5ccc([N+](=O)[O-])cc5nc4O)cc3)cnc2c1 (stereo not given)	> 100 µM (inactive)	44.1 µM (inactive)	18.1 µM (inactive)	32.1 µM (inactive)	> 100 µM (inactive)		13.6 µM (inactive)	> 100 µM (inactive)		48.5 µM (inactive)	24.8 µM (inactive)	> 100 µM (inactive)	> 100 µM (inactive)	> 100 µM (inactive)	18 µM (inactive)	43.8 µM (inactive)	55.5 µM (inactive)	33.7 µM (inactive)	
Clc1ccc(-c2nnc(-c3c(Cl)c(Cl)c(Cl)c(Cl)c3-c3nc4ccccc4[nH]3)o2)cc1	> 100 µM (inactive)	46.8 µM (inactive)	44 µM (inactive)	82.8 µM (inactive)	31.7 µM (inactive)		34.3 µM (inactive)	52.2 µM (inactive)	54.5 µM (inactive)		40.4 µM (inactive)	48.5 µM (inactive)	> 100 µM (inactive)	48.2 µM (inactive)	97.3 µM (inactive)	> 100 µM (inactive)	31.6 µM (inactive)	34.3 µM (inactive)	21 µM (inactive)
CCCNC1=Nc2ccccc2[C@@H]2N(C)c3ccccc3C(C)C[C@]12C (stereo not given in full)		37.1 µM (inactive)	24.5 µM (inactive)	14.4 µM (inactive)		15.8 µM (inactive)	20 µM (inactive)	17.9 µM (inactive)	34 µM (inactive)	28.8 µM (inactive)	15.6 µM (inactive)	16.3 µM (inactive)	16.5 µM (inactive)	14.7 µM (inactive)	23.8 µM (inactive)	13.2 µM (inactive)	14.8 µM (inactive)		20 µM (inactive)
COc1cc2oc(-c3ccc(O)cc3)cc(=O)c2c(OC)c1O	30.5 µM (inactive)	68.7 µM (inactive)	45.7 µM (inactive)		27.9 µM (inactive)	46.9 µM (inactive)	60.5 µM (inactive)	> 100 µM (inactive)	> 100 µM (inactive)	89.9 µM (inactive)	49.4 µM (inactive)	62.5 µM (inactive)	> 100 µM (inactive)	49.7 µM (inactive)	32.7 µM (inactive)	> 100 µM (inactive)	54 µM (inactive)		6.41 µM (inactive)
